# Data: ChEMBL document CHEMBL3351493, “Beta-aminoketones as prodrugs for selective irreversible inhibitors of type-1 methionine aminopeptidases” (Bioorg Med Chem Lett, 2014)
# Activity calls are given as the source filed them. No cut-off for these calls is given here.
# Biological target: Methionine aminopeptidase (Staphylococcus aureus (strain COL), UniProt Q5HEN6)
# Assay: Inhibition of N-terminal poly-His-tagged Staphylococcus aureus COL MetAP expressed in Escherichia coli BL21(DE3) incubated for 30 mins before MGMM substrate addition by fluorescence assay
# Set-up: species or system Staphylococcus aureus subsp. aureus COL
# Settings: not given
row,SMILES,IC50
1,CC1CC(CN(C)C)C(=O)c2ccccc21.Cl (configuration not stated),Not Active
2,Cl.O=C(CCN1CCCCC1)c1ccccc1,Not Active
3,Cl.O=C1c2ccccc2CCC1CN1CCCCC1 (configuration not stated),Not Active
4,COc1cccc(C(=O)CCN2CCCCC2)c1.Cl,Not Active

# Results, then the molecule that gave them:
row,IC50,SMILES
1,Not Active,COc1ccc2c(c1)C(=O)C(CN1CCCCC1)CC2.Cl (configuration not stated)
2,Not Active,COc1ccc2c(c1)C(=O)C(CN(C)C)CC2.Cl (configuration not stated)
3,Not Active,CN(C)CC1CCc2ccccc2C1=O.Cl (configuration not stated)

# Biological target: Methionine aminopeptidase 2 (Homo sapiens, UniProt P50579)
# Sequence (P50579 whole entry): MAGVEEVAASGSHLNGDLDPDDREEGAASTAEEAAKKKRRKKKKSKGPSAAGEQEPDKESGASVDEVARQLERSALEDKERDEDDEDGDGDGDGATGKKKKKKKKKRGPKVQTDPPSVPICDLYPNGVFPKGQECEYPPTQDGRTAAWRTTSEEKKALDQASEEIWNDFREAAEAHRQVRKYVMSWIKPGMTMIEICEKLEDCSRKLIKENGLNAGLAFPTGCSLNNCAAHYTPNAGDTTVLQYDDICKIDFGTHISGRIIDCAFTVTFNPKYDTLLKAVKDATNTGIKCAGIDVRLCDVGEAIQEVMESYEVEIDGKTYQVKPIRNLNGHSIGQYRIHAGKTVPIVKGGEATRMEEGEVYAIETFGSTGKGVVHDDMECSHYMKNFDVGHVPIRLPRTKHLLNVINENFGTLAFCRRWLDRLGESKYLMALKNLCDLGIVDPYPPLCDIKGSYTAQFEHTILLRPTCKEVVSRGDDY
# Settings: sf9
# Description: Inhibition of human MetAP-2 expressed in Sf9 cells incubated for 60 mins before MGMM substrate addition by fluorescence assay
row,SMILES,IC50
1,CC1CC(CN(C)C)C(=O)c2ccccc21.Cl (configuration not stated),Not Active
2,Cl.O=C(CCN1CCCCC1)c1ccccc1,Not Active
3,Cl.O=C1c2ccccc2CCC1CN1CCCCC1 (configuration not stated),Not Active
4,COc1cccc(C(=O)CCN2CCCCC2)c1.Cl,Not Active

# Second part, the molecule after the results:
row,IC50,SMILES
1,Not Active,COc1ccc2c(c1)C(=O)C(CN1CCCCC1)CC2.Cl (configuration not stated)
2,Not Active,COc1ccc2c(c1)C(=O)C(CN(C)C)CC2.Cl (configuration not stated)
3,Not Active,CN(C)CC1CCc2ccccc2C1=O.Cl (configuration not stated)

# Tested on: Ca-Ski
# Assay: Cytotoxicity against human CaSki cells at 1.6 to 100 ug/ml after 72 hrs by crystal violet assay
# Type: functional, cell-based
# Settings: not given
row,SMILES,Activity
1,COc1ccc2c(c1)C(=O)C(CN1CCCCC1)CC2.Cl (configuration not stated),Active
2,CC1CC(CN(C)C)C(=O)c2ccccc21.Cl (configuration not stated),Active
3,COc1ccc2c(c1)C(=O)C(CN(C)C)CC2.Cl (configuration not stated),Active
4,CN(C)CC1CCc2ccccc2C1=O.Cl (configuration not stated),Active
5,Cl.O=C(CCN1CCCCC1)c1ccccc1,Active
6,Cl.O=C1c2ccccc2CCC1CN1CCCCC1 (configuration not stated),Active
7,COc1cccc(C(=O)CCN2CCCCC2)c1.Cl,Active

# Tested on: HaCaT
# Assay: Cytotoxicity against human HaCaT cells at 1.6 to 100 ug/ml after 72 hrs by crystal violet assay
# Type: cell-based
# Settings: not given
row,SMILES,Activity
1,COc1ccc2c(c1)C(=O)C(CN1CCCCC1)CC2.Cl (configuration not stated),Toxic
2,CC1CC(CN(C)C)C(=O)c2ccccc21.Cl (configuration not stated),Toxic
3,COc1ccc2c(c1)C(=O)C(CN(C)C)CC2.Cl (configuration not stated),Toxic
4,CN(C)CC1CCc2ccccc2C1=O.Cl (configuration not stated),Toxic
5,Cl.O=C(CCN1CCCCC1)c1ccccc1,Toxic
6,Cl.O=C1c2ccccc2CCC1CN1CCCCC1 (configuration not stated),Toxic
7,COc1cccc(C(=O)CCN2CCCCC2)c1.Cl,Toxic

# Tested on: Calu-6
# Assay: Cytotoxicity against human Calu6 cells at 1.6 to 100 ug/ml after 72 hrs by crystal violet assay
# Type: functional, cell-based
# Settings: not given
row,SMILES,Activity
1,COc1ccc2c(c1)C(=O)C(CN1CCCCC1)CC2.Cl (configuration not stated),Active
2,CC1CC(CN(C)C)C(=O)c2ccccc21.Cl (configuration not stated),Active
3,COc1ccc2c(c1)C(=O)C(CN(C)C)CC2.Cl (configuration not stated),Active
4,CN(C)CC1CCc2ccccc2C1=O.Cl (configuration not stated),Active
5,Cl.O=C(CCN1CCCCC1)c1ccccc1,Active
6,Cl.O=C1c2ccccc2CCC1CN1CCCCC1 (configuration not stated),Active
7,COc1cccc(C(=O)CCN2CCCCC2)c1.Cl,Active

# Tested on: not listed separately
# Assay: Cytotoxicity against human Flow 2002 cells at 1.6 to 100 ug/ml after 72 hrs by crystal violet assay
# Type: cell-based
# Settings: flow 2002, 72 h
row,SMILES,Activity
1,COc1ccc2c(c1)C(=O)C(CN1CCCCC1)CC2.Cl (configuration not stated),Toxic
2,CC1CC(CN(C)C)C(=O)c2ccccc21.Cl (configuration not stated),Toxic
3,COc1ccc2c(c1)C(=O)C(CN(C)C)CC2.Cl (configuration not stated),Toxic
4,CN(C)CC1CCc2ccccc2C1=O.Cl (configuration not stated),Toxic
5,Cl.O=C(CCN1CCCCC1)c1ccccc1,Toxic
6,Cl.O=C1c2ccccc2CCC1CN1CCCCC1 (configuration not stated),Toxic
7,COc1cccc(C(=O)CCN2CCCCC2)c1.Cl,Toxic

# Tested on: BT-474
# Assay: Cytotoxicity against human BT474 cells at 1.6 to 100 ug/ml after 72 hrs by crystal violet assay
# Type: functional, cell-based
# Settings: not given
row,SMILES,Activity
1,COc1ccc2c(c1)C(=O)C(CN1CCCCC1)CC2.Cl (configuration not stated),Active
2,CC1CC(CN(C)C)C(=O)c2ccccc21.Cl (configuration not stated),Active
3,COc1ccc2c(c1)C(=O)C(CN(C)C)CC2.Cl (configuration not stated),Active
4,CN(C)CC1CCc2ccccc2C1=O.Cl (configuration not stated),Active
5,Cl.O=C(CCN1CCCCC1)c1ccccc1,Active
6,Cl.O=C1c2ccccc2CCC1CN1CCCCC1 (configuration not stated),Active
7,COc1cccc(C(=O)CCN2CCCCC2)c1.Cl,Active

# Tested on: not listed separately
# Assay: Half life assessed as decomposition into amines and unsaturated ketones at 250 uM in 50 mM Tris/maleate pH 7.5 buffer by HPLC method
# Type: physicochemical
# Settings: Tris/maleate buffer, pH 7.5
row,SMILES,half-life at 250 µM
1,CC1CC(CN(C)C)C(=O)c2ccccc21.Cl (configuration not stated),4.82 h
2,Cl.O=C1c2ccccc2CCC1CN1CCCCC1 (configuration not stated),14.4 h

# Continued, values first:
row,half-life at 250 µM,SMILES
1,10.5 h,COc1ccc2c(c1)C(=O)C(CN1CCCCC1)CC2.Cl (configuration not stated)
2,6.8 h,COc1ccc2c(c1)C(=O)C(CN(C)C)CC2.Cl (configuration not stated)
3,5.78 h,CN(C)CC1CCc2ccccc2C1=O.Cl (configuration not stated)

# Same assay, conditions: buffer, pH 7.5, 250 µM
row,SMILES,t1/2
1,Cl.O=C(CCN1CCCCC1)c1ccccc1,Stable
2,COc1cccc(C(=O)CCN2CCCCC2)c1.Cl,Stable

# Biological target: T1, Methionine aminopeptidase (Escherichia coli K-12, UniProt P0AE18)
# T1 sequence (P0AE18 whole entry): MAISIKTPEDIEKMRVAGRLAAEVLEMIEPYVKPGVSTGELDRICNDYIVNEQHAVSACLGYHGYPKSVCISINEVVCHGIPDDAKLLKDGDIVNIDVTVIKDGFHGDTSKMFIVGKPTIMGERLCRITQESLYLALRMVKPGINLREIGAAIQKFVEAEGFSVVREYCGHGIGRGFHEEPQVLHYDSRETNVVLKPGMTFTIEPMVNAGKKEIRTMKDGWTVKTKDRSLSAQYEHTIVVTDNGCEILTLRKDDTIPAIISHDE
# Assay: Inhibition of C-terminal poly-His-tagged Escherichia coli MetAP expressed in Escherichia coli BL21(DE3) incubated for 30 mins before MGMM substrate addition by fluorescence assay
# Settings: not given
row,SMILES,IC50
1,Cl.O=C(CCN1CCCCC1)c1ccccc1,Not Active
2,COc1cccc(C(=O)CCN2CCCCC2)c1.Cl,Not Active

# Same assay, conditions: read-out: IC50
row,SMILES,IC50
1,CC1CC(CN(C)C)C(=O)c2ccccc21.Cl (configuration not stated),3.8 µM
2,Cl.O=C1c2ccccc2CCC1CN1CCCCC1 (configuration not stated),9.1 µM

# Results, then the molecule that gave them:
row,IC50,SMILES
1,3.7 µM,COc1ccc2c(c1)C(=O)C(CN1CCCCC1)CC2.Cl (configuration not stated)
2,2.1 µM,COc1ccc2c(c1)C(=O)C(CN(C)C)CC2.Cl (configuration not stated)
3,8.4 µM,CN(C)CC1CCc2ccccc2C1=O.Cl (configuration not stated)

# Tested on: A 172
# Assay: Cytotoxicity against human A172 cells at 1.6 to 100 ug/ml after 72 hrs by crystal violet assay
# Type: functional, cell-based
# Settings: not given
row,SMILES,Activity
1,COc1ccc2c(c1)C(=O)C(CN1CCCCC1)CC2.Cl (configuration not stated),Active
2,CC1CC(CN(C)C)C(=O)c2ccccc21.Cl (configuration not stated),Active
3,COc1ccc2c(c1)C(=O)C(CN(C)C)CC2.Cl (configuration not stated),Active
4,CN(C)CC1CCc2ccccc2C1=O.Cl (configuration not stated),Active
5,Cl.O=C(CCN1CCCCC1)c1ccccc1,Active
6,Cl.O=C1c2ccccc2CCC1CN1CCCCC1 (configuration not stated),Active
7,COc1cccc(C(=O)CCN2CCCCC2)c1.Cl,Active

# Tested on: SW707
# Assay: Cytotoxicity against human SW707 cells at 1.6 to 100 ug/ml after 72 hrs by crystal violet assay
# Type: functional, cell-based
# Settings: not given
row,SMILES,Activity
1,COc1ccc2c(c1)C(=O)C(CN1CCCCC1)CC2.Cl (configuration not stated),Active
2,CC1CC(CN(C)C)C(=O)c2ccccc21.Cl (configuration not stated),Active
3,COc1ccc2c(c1)C(=O)C(CN(C)C)CC2.Cl (configuration not stated),Active
4,CN(C)CC1CCc2ccccc2C1=O.Cl (configuration not stated),Active
5,Cl.O=C(CCN1CCCCC1)c1ccccc1,Active
6,Cl.O=C1c2ccccc2CCC1CN1CCCCC1 (configuration not stated),Active
7,COc1cccc(C(=O)CCN2CCCCC2)c1.Cl,Active

# Tested on: Escherichia coli
# Assay: Antimicrobial activity against Escherichia coli BL21(DE3) assessed as inhibition of bacterial growth at 200 uM incubated at 37 degC for 7 hrs
# Type: functional
# Settings: not given
row,SMILES,inhibition
1,Cl.O=C(CCN1CCCCC1)c1ccccc1,inactive
2,COc1cccc(C(=O)CCN2CCCCC2)c1.Cl,inactive

# Same assay, conditions: BL21-DE3, 7 h
row,SMILES,inhibition at 200 µM
1,COc1ccc2c(c1)C(=O)C(CN1CCCCC1)CC2.Cl (configuration not stated),30%
2,CC1CC(CN(C)C)C(=O)c2ccccc21.Cl (configuration not stated),75%
3,COc1ccc2c(c1)C(=O)C(CN(C)C)CC2.Cl (configuration not stated),49%
4,CN(C)CC1CCc2ccccc2C1=O.Cl (configuration not stated),68%
5,Cl.O=C1c2ccccc2CCC1CN1CCCCC1 (configuration not stated),28%

# Tested on: MeWo
# Assay: Cytotoxicity against human MeWo cells at 1.6 to 100 ug/ml after 72 hrs by crystal violet assay
# Type: functional, cell-based
# Settings: not given
row,SMILES,Activity
1,COc1ccc2c(c1)C(=O)C(CN1CCCCC1)CC2.Cl (configuration not stated),Active
2,CC1CC(CN(C)C)C(=O)c2ccccc21.Cl (configuration not stated),Active
3,COc1ccc2c(c1)C(=O)C(CN(C)C)CC2.Cl (configuration not stated),Active
4,CN(C)CC1CCc2ccccc2C1=O.Cl (configuration not stated),Active
5,Cl.O=C(CCN1CCCCC1)c1ccccc1,Active
6,Cl.O=C1c2ccccc2CCC1CN1CCCCC1 (configuration not stated),Active
7,COc1cccc(C(=O)CCN2CCCCC2)c1.Cl,Active

# Tested on: A-431
# Assay: Cytotoxicity against human A431 cells at 1.6 to 100 ug/ml after 72 hrs by crystal violet assay
# Type: functional, cell-based
# Settings: not given
row,SMILES,Activity
1,COc1ccc2c(c1)C(=O)C(CN1CCCCC1)CC2.Cl (configuration not stated),Active
2,CC1CC(CN(C)C)C(=O)c2ccccc21.Cl (configuration not stated),Active
3,COc1ccc2c(c1)C(=O)C(CN(C)C)CC2.Cl (configuration not stated),Active
4,CN(C)CC1CCc2ccccc2C1=O.Cl (configuration not stated),Active
5,Cl.O=C(CCN1CCCCC1)c1ccccc1,Active
6,Cl.O=C1c2ccccc2CCC1CN1CCCCC1 (configuration not stated),Active
7,COc1cccc(C(=O)CCN2CCCCC2)c1.Cl,Active

# Biological target: Methionine aminopeptidase 1 (Homo sapiens, UniProt P53582)
# Assay: Inhibition of N-terminal poly-His-tagged human MetAP-1 expressed in Escherichia coli BL21(DE3) incubated for 30 mins before MGMM substrate addition by fluorescence assay
# Settings: not given
row,SMILES,IC50
1,CC1CC(CN(C)C)C(=O)c2ccccc21.Cl (configuration not stated),Not Active
2,Cl.O=C(CCN1CCCCC1)c1ccccc1,Not Active
3,Cl.O=C1c2ccccc2CCC1CN1CCCCC1 (configuration not stated),Not Active
4,COc1cccc(C(=O)CCN2CCCCC2)c1.Cl,Not Active

# Further lines, results first:
row,IC50,SMILES
1,Not Active,COc1ccc2c(c1)C(=O)C(CN1CCCCC1)CC2.Cl (configuration not stated)
2,Not Active,COc1ccc2c(c1)C(=O)C(CN(C)C)CC2.Cl (configuration not stated)
3,Not Active,CN(C)CC1CCc2ccccc2C1=O.Cl (configuration not stated)

# Tested on: CAPAN-1
# Assay: Cytotoxicity against human Capan1 cells at 1.6 to 100 ug/ml after 72 hrs by crystal violet assay
# Type: functional, cell-based
# Settings: not given
row,SMILES,Activity
1,COc1ccc2c(c1)C(=O)C(CN1CCCCC1)CC2.Cl (configuration not stated),Active
2,CC1CC(CN(C)C)C(=O)c2ccccc21.Cl (configuration not stated),Active
3,COc1ccc2c(c1)C(=O)C(CN(C)C)CC2.Cl (configuration not stated),Active
4,CN(C)CC1CCc2ccccc2C1=O.Cl (configuration not stated),Active
5,Cl.O=C(CCN1CCCCC1)c1ccccc1,Active
6,Cl.O=C1c2ccccc2CCC1CN1CCCCC1 (configuration not stated),Active
7,COc1cccc(C(=O)CCN2CCCCC2)c1.Cl,Active
